Like-named read-outs stand apart in the source and are kept apart here.

These results are taken from patent US20230339900A1, “CASEIN KINASE 1 DELTA MODULATORS” (Janssen Pharmaceutica NV, priority 2020, published 2023).

The subject of assay [1] is circadian rhythms. Particulars: cellular reporter assays; cited from earlier work.
Assay [2] has as its system circadian rhythms. Conditions: in vivo locomotor activity of a variety of species; cited from earlier work.
The conditions of assay [3]: ob/ob and diet-induced obese mouse, daily administration; cited from earlier work.
For assay [4] the following is noted: conditioned place preference with cocaine and alcohol reinstatement; cited from earlier work.
In assay [5] the target is human recombinant GST cleaved CSNK1D (Homo sapiens (Human), UniProt P48730). The assay can be described thus: Purified enzyme assay (ADP-Glo Kinase Assay). Type of assay: biochemical. Conditions: 2 nM CSNK1D, peptide substrate 150 μM, ATP 20 μM, 45 minutes room temperature.
For assay [6], the target named is human CSNK1D tagged with nanoluciferase (Homo sapiens (Human), UniProt P48730). Description: Whole Cell nBRET CSNK1D Binding Assay. Conditions: living CHO cells stably expressing human CSNK1D-nanoluciferase; NanoBret tracer 130 nM; 2 hours 37° C.; read-out: CSNK1D BRET IC50. The method in brief:
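IC50 values come from milliBRET ratios ((E630/E450)*1000) fitted against log compound concentration. Tracer displacement was run in living CHO cells stably expressing NanoLuc-fused CSNK1D, with dosed compounds and 130 nM tracer incubated 2 h at 37 °C in serum-free OptiMEM before substrate addition and donor/acceptor reading.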

Sequence of human CSNK1D tagged with nanoluciferase (P48730 whole entry, the tested form may be a part): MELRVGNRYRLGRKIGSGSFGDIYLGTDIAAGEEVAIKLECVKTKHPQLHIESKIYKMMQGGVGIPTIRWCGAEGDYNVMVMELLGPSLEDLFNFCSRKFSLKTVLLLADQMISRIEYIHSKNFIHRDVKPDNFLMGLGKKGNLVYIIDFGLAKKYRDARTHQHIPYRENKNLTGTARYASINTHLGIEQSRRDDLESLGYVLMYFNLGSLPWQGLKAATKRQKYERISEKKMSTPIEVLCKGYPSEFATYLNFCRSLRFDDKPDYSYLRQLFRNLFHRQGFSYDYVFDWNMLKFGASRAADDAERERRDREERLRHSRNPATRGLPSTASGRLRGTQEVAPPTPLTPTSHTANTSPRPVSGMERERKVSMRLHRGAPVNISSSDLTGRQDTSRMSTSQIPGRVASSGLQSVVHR
Sequence of human recombinant GST cleaved CSNK1D (P48730 whole entry): as the sequence (P48730 whole entry, the tested form may be a part) above

Consider `Nc1nccc(-c2c(-c3ccc(F)cc3)ncn2C2CCN(Cc3ccon3)CC2)n1` [PF-5006739], for which the “effect on circadian rhythms” value in assay [1] and in assay [2] was “significantly lengthened circadian rhythms” throughout. In addition, the “effect on glucose tolerance” value in assay [3] is reported as “improve glucose tolerance”.

Turning to `Nc1nccc(-c2c(-c3ccc(F)cc3)ncn2C2CCCCC2)n1` [PF-670462], the “effect on circadian rhythms” value in assay [1] and in assay [2] was “significantly lengthened circadian rhythms” in each case. Besides, the “efficacy in addiction/substance abuse models” value in assay [4] is “have shown efficacy”.

As for `Cc1ccnc2c(-c3cn(C)nc3-c3ccc(F)cn3)ccnc12` [Example 133, 4-[3-(5-Fluoro-2-pyridyl)-1-methyl-pyrazol-4-yl]-8-methyl-1,5-naphthyridine], the AC50 in assay [5] was determined as 7030 nM. Also, in assay [6], the IC50 was more than 10000 nM.

As for `Cn1cc(-c2ccnc3[nH]ccc23)c(-c2cccnc2)n1` [Example 53, 4-[1-Methyl-3-(3-pyridyl)pyrazol-4-yl]-1H-pyrrolo[2,3-b]pyridine], the AC50 in assay [5] was found to be 68 nM. The IC50 in assay [6] turned out to be 359 nM.

Turning to `Cn1cc(-c2ccnc3[nH]ccc23)c(-c2cscn2)n1` [Example 13, 4-(1-Methyl-4-(1H-pyrrolo[2,3-b]pyridin-4-yl)-1H-pyrazol-3-yl)thiazole], in assay [5], the AC50 was found to be 28 nM. For the same compound, the IC50 in assay [6] came out at 626 nM.

Turning to `COc1nc(-c2nn(C)cc2-c2cc(C)nc3[nH]ncc23)ccc1Cl` [Example 42, 4-(3-(5-Chloro-6-methoxypyridin-2-yl)-1-methyl-1H-pyrazol-4-yl)-6-methyl-1H-pyrazolo[3,4-b]pyridine], the AC50 in assay [5] was 134 nM. Further, in assay [6], the IC50 worked out at 2770 nM.

As to `Cn1cc(-c2cc(C(F)F)nc3[nH]ncc23)c(-c2cncc(F)c2)n1` [Example 146, 6-(Difluoromethyl)-4-[3-(5-fluoro-3-pyridyl)-1-methyl-pyrazol-4-yl]-1H-pyrazolo[3,4-b]pyridine], the AC50 in assay [5] came out at 171 nM. For the same compound, the IC50 in assay [6] worked out at 6570 nM.

For the compound `Cc1cc(-c2cn(C)nc2-c2ccc(F)cn2)c2c(C)n[nH]c2n1` [Example 100, 4-[3-(5-Fluoro-2-pyridyl)-1-methyl-pyrazol-4-yl]-3,6-dimethyl-1H-pyrazolo[3,4-b]pyridine], the AC50 in assay [5] was 12 nM. The IC50 in assay [6] came out at 197 nM.

For `Cn1cc(-c2ccnc3c2CCC3)c(-c2ccc(F)cn2)n1` [Example 2, 4-(3-(5-Fluoropyridin-2-yl)-1-methyl-1H-pyrazol-4-yl)-6,7-dihydro-5H-cyclopenta[b]pyridine], the half-maximal activity concentration (AC50) in assay [5] came to 37 nM. Further, the IC50 in assay [6] turned out to be 955 nM.
